In patent publication US8232248B2, “Treatment of rheumatoid arthritis with mammal beta defensins” (Novozymes Adenium Biotech A/S, priority 2008, dated 2012):
Where no end group is shown, it is not given here.

How the values were obtained:
[1] = test system: TNF production from human peripheral blood mononuclear cells (PBMC); assay: TNF production from PBMC stimulated with LPS, LTA, PGN or Pam3CSK4, 24 h, Cytometric Bead Array; type: cell-based; details: for TNF % of control / TNF: Table 18
Method: (§1) Peripheral blood was drawn from healthy volunteers (with approval from the relevant ethical committee in Denmark). Heparinized blood was diluted 1/1 v/v with RPMI and were subjected to Ficoll density centrifugation within 2 h of drawing. Plasma was collected from the top from individual donors and was kept on ice until it was used at 2% in the culture medium (autologous culture medium). Isolated PBMC were resuspended in autologous culture medium and seeded in 96-well culture plates with 255.000 cells per well in a total of 200 μl. […] The concentrations used for stimulation were optimized on 3 different donors in initial experiments, for LPS two different concentrations were used to be sure to be on a cytokine level that is possible to modulate. In some experiments PBMC were treated with Dexamethason and Indomethacin alone and together with LPS or LTA as a control on downregulation of inflammatory cytokines. The supernatants were collected after incubation at 37° C. for 24 hours, and stored at −80° C. until cytokine measurement. Viability was measured by Alamar Blue (Biosource, DALL 1100) in all experiments and in some cases also by MTS (Promega) according to manufacturer's instruction and was in some experiments also judged by counting of the cells by a Nucleocounter.
(§2) Cytokine production in supernatants was measured by flow cytometry with a human inflammation cytometric bead array (CBA) according to manufacturer's instructions (BD) on a FACSarray flow cytometer. The following cytokines were measured: IL-8, IL-1β, IL-10, TNF, IL-12 p70, IL-6. In some experiments, cytokines were measured by ELISA kits from R&D systems (IL-10, TNF-α, IL-1β) according to the manufacturer' instruction.
(§3) All experiments were performed at least twice, with representative results shown. The data presented are expressed as mean plus/minus standard deviation (SD). […] Differences were considered significant for p<0.05.
Example 3 was carried out essentially as described in Example 2. […]

[2] = test system: IL-10 production from human peripheral blood mononuclear cells (PBMC); assay: IL-10 production from PBMC stimulated with LPS, LTA or PGN, 24 h, Cytometric Bead Array; type: cell-based; details: Table 19
Method: as §1, §2, §3

[3] = test system: IL-1β production from human peripheral blood mononuclear cells (PBMC); assay: IL-1β production from PBMC stimulated with LPS or LTA, 24 h, Cytometric Bead Array; type: cell-based; details: Table 20
Method: as §1, §2, §3

[4] = test system: IL-23, human PBMC; assay: IL-23 in supernatants of human PBMC, ELISA; type: cell-based; details: Infliximab 1 μg/ml
Method: as §1
Moreover, the effect of rhBD2 on human monocyte-derived dendritic cells was also investigated.
Cell culture supernatants were collected and stored at −80° C. Amounts of IL-23 was measured by standard sandwich ELISA using commercially available antibodies and standards according to the manufacturer's protocols (eBioscience).
All experiments were performed at least twice, with representative results shown. The data presented are expressed as mean plus/minus standard deviation […]. […] Differences were considered significant for p<0.05.

[5] = test system: TNF production from mouse peripheral blood mononuclear cells (PBMC); assay: TNF production from mouse PBMC, mouse inflammation CBA; type: cell-based
Method: Mouse peripheral blood mononuclear cells were isolated from blood of ten NMRI mice. In short, heparinized blood was diluted 1/1 v/v with RPMI and subjected to Ficoll density centrifugation within 2 h of drawing. Plasma was collected from the top and discarded. Isolated PBMC were resuspended in culture medium (RPMI 1640 (Gibco, 42401) w/1% penicillin and streptomycin and 1% L-Glutamine) and seeded in 96-well culture plates with 115.500 cells per well in a total of 200 μl. […] The supernatants were collected after incubation at 37° C. for 24 hours, and stored at −80° C. until cytokine measurement.
Cytokine production in supernatants was measured by flow cytometry with a mouse inflammation cytometric bead array (CBA) according to manufacturer's instructions (BD) on a FACSarray flow cytometer.

[6] = test system: PBMC; assay: PBMC viability, Alamar Blue; type: cell-based, human; details: 10 μg/ml and 40 μg/ml
Method: as §1

[7] = positive control, concentration not given, LPS 0.6 ng/ml
[8] = positive control, concentration not given, LPS 20 ng/ml
[9] = positive control, concentration not given, Medium, non-treated 0
[10] = test compound 1 μg/ml, LPS 0.6 ng/ml
[11] = test compound 1 μg/ml, LPS 0.6 ng/ml, non-treated 66
[12] = test compound 1 μg/ml, LPS 20 ng/ml
[13] = test compound 1 μg/ml, Medium, non-treated 0
[14] = test compound 10 μg/ml, LPS 0.6 ng/ml
[15] = test compound 10 μg/ml, LPS 20 ng/ml
[16] = test compound 10 μg/ml, Medium, non-treated 0
[17] = test compound 40 μg/ml, LPS 0.6 ng/ml
[18] = test compound 40 μg/ml, LPS 20 ng/ml
[19] = test compound 40 μg/ml, Medium, non-treated 0
[20] = test compound 1 μg/ml, LPS 0.6 ng/ml, non-treated 741
[21] = test compound 1 μg/ml, LPS 20 ng/ml, non-treated 2544
[22] = test compound 1 μg/ml, LPS 0.6 ng/ml, non-treated 728
[23] = test compound 1 μg/ml, LPS 20 ng/ml, non-treated 2164
[24] = test compound 1 μg/ml, Medium, non-treated 1

Compound: COc1ccc2c(c1)c(CC(=O)O)c(C)n2C(=O)c1ccc(Cl)cc1 [Indomethacin, reference compound]
- TNF inhibition (positive controls) ([1]; PBMC stimulated with LPS or LTA, Table 13): only inhibited TNF (Table 13) after stimulation with LTA

Compound: Infliximab: anti-inflammatory compound included as positive control on downregulation of TNF [reference compound]
- IL-10 % of control [2, 7]: 69%
- IL-10 ([2]; positive control, concentration not given, LPS 0.6 ng/ml, non-treated 66): 46 pg/mL
- IL-10 % of control [2, 8]: 56%
- IL-10 ([2]; positive control, concentration not given, LPS 20 ng/ml, non-treated 111): 63 pg/mL
- IL-10 [2, 9]: 0 pg/mL
- IL-1β % of control [3, 7]: 86%
- IL-1β ([3]; positive control, concentration not given, LPS 0.6 ng/ml, non-treated 741): 636 pg/mL
- IL-1β % of control [3, 8]: 106%
- IL-1β ([3]; positive control, concentration not given, LPS 20 ng/ml, non-treated 2544): 2704 pg/mL
- IL-1β [3, 9]: 0 pg/mL
- IL-23 ([4]; Control (medium), non-treated 257): 227 pg/mL
- IL-23 ([4]; LPS 0.6 ng/ml, non-treated 553): 356 pg/mL
- IL-23 ([4]; LPS 20 ng/ml, non-treated 510): 373 pg/mL
- IL-23 ([4]; LTA 5 μg/ml, non-treated 762): 349 pg/mL
- TNF % of control [1, 7]: 0%
- TNF ([1]; positive control, concentration not given, LPS 0.6 ng/ml, non-treated 728): 0 pg/mL
- TNF % of control [1, 8]: 0%
- TNF ([1]; positive control, concentration not given, LPS 20 ng/ml, non-treated 2164): 0 pg/mL
- TNF ([1]; positive control, concentration not given, Medium, non-treated 1): 0 pg/mL
- TNF ([5]; Infliximab 1 μg/ml, LPS 20 ng/ml, untreated 2063): 2119 pg/mL
- TNF ([5]; Infliximab 1 μg/ml, Medium, untreated 578): 530 pg/mL

Compound: hBD1: human beta defensin 1, SEQ ID NO:1, obtained from Peptide Institute Inc. (DHYNCVSSGGQCLYSACPIFTKIQGTCYRGKAKCCK; ends and bridges not checked; cysteine pairing not given here; listed as Homo sapiens)
- IL-10 % of control [2, 10]: 108%
- IL-10 [2, 11]: 71 pg/mL
- IL-10 % of control [2, 12]: 85%
- IL-10 ([2]; test compound 1 μg/ml, LPS 20 ng/ml, non-treated 111): 95 pg/mL
- IL-10 [2, 13]: 0 pg/mL
- IL-10 % of control [2, 14]: 114%
- IL-10 ([2]; test compound 10 μg/ml, LPS 0.6 ng/ml, non-treated 66): 76 pg/mL
- IL-10 % of control [2, 15]: 90%
- IL-10 ([2]; test compound 10 μg/ml, LPS 20 ng/ml, non-treated 111): 100 pg/mL
- IL-10 [2, 16]: 0 pg/mL
- IL-10 % of control [2, 17]: 104%
- IL-10 ([2]; test compound 40 μg/ml, LPS 0.6 ng/ml, non-treated 66): 69 pg/mL
- IL-10 % of control [2, 18]: 102%
- IL-10 ([2]; test compound 40 μg/ml, LPS 20 ng/ml, non-treated 111): 113 pg/mL
- IL-10 [2, 19]: 0 pg/mL
- IL-1β % of control [3, 10]: 69%
- IL-1β [3, 20]: 512 pg/mL
- IL-1β % of control [3, 12]: 82%
- IL-1β [3, 21]: 2087 pg/mL
- IL-1β [3, 13]: 0 pg/mL
- IL-1β % of control [3, 14]: 54%
- IL-1β ([3]; test compound 10 μg/ml, LPS 0.6 ng/ml, non-treated 741): 401 pg/mL
- IL-1β % of control [3, 15]: 75%
- IL-1β ([3]; test compound 10 μg/ml, LPS 20 ng/ml, non-treated 2544): 1913 pg/mL
- IL-1β [3, 16]: 0 pg/mL
- IL-1β % of control [3, 17]: 41%
- IL-1β ([3]; test compound 40 μg/ml, LPS 0.6 ng/ml, non-treated 741): 302 pg/mL
- IL-1β % of control [3, 18]: 63%
- IL-1β ([3]; test compound 40 μg/ml, LPS 20 ng/ml, non-treated 2544): 1599 pg/mL
- IL-1β [3, 19]: 0 pg/mL
- TNF % of control [1, 10]: 65%
- TNF [1, 22]: 474 pg/mL
- TNF % of control [1, 12]: 64%
- TNF [1, 23]: 1395 pg/mL
- TNF [1, 24]: 1 pg/mL
- TNF % of control [1, 14]: 28%
- TNF ([1]; test compound 10 μg/ml, LPS 0.6 ng/ml, non-treated 728): 203 pg/mL
- TNF % of control [1, 15]: 61%
- TNF ([1]; test compound 10 μg/ml, LPS 20 ng/ml, non-treated 2164): 1311 pg/mL
- TNF ([1]; test compound 10 μg/ml, Medium, non-treated 1): 0 pg/mL
- TNF % of control [1, 17]: 13%
- TNF ([1]; test compound 40 μg/ml, LPS 0.6 ng/ml, non-treated 728): 91 pg/mL
- TNF % of control [1, 18]: 46%
- TNF ([1]; test compound 40 μg/ml, LPS 20 ng/ml, non-treated 2164): 999 pg/mL
- TNF ([1]; test compound 40 μg/ml, Medium, non-treated 1): 0 pg/mL

Compound: hBD3: human beta defensin 3, SEQ ID NO:3, obtained from Peptide Institute Inc.
- Toxicity to the cells [6]: toxic to the cells
- IL-10 % of control [2, 10]: 107%
- IL-10 [2, 11]: 71 pg/mL
- IL-10 % of control [2, 12]: 137%
- IL-10 [2, 13]: 0 pg/mL
- IL-1β % of control [3, 10]: 45%
- IL-1β [3, 20]: 331 pg/mL
- IL-1β % of control [3, 12]: 22%
- IL-1β [3, 21]: 568 pg/mL
- IL-1β [3, 13]: 0 pg/mL
- TNF % of control [1, 10]: 73%
- TNF [1, 22]: 528 pg/mL
- TNF % of control [1, 12]: 21%
- TNF [1, 23]: 451 pg/mL
- TNF [1, 24]: 0 pg/mL

Compound: mBD3: mouse beta defensin 3, SEQ ID NO:6, prepared with the same protocol as hBD2 (KINNPVSCLRKGGRCWNRCIGNTRQIGSCGVPFLKCCKRK; ends and bridges not checked; cysteine pairing not given here; listed as Mus musculus)
- Secretion of TNF from human PBMCs ([1]; Table 23): downregulating the secretion of TNF from human PBMCs to the same extend as hBD2 and dexamethason
- TNF ([5]; mBD3 1 μg/ml, LPS 20 ng/ml, untreated 2063): 1600 pg/mL
- TNF ([5]; mBD3 1 μg/ml, Medium, untreated 578): 347 pg/mL
- TNF ([5]; mBD3 10 μg/ml, LPS 20 ng/ml, untreated 2063): 297 pg/mL
- TNF ([5]; mBD3 10 μg/ml, Medium, untreated 578): 180 pg/mL
- TNF ([5]; mBD3 100 μg/ml, LPS 20 ng/ml, untreated 2063): 195 pg/mL
- TNF ([5]; mBD3 100 μg/ml, Medium, untreated 578): 182 pg/mL
